In data set [1] the test system is STAT3. Conditions: Kras mutant pancreatic and colon cancer cells; cited from earlier work.
Data set [2] relates to NR PDACs (tumors of big sizes). In words: Tumor growth monitored by ultrasound in genetically engineered mice. Format: in vivo, mouse. As to conditions: NR triple: SD-36 50 mg/kg daily added to tamoxifen and Afatinib 20 mg/kg daily. As to the method:
(§1) Silencing of Egfr, Raf1 and Stat3 was mediated with the lentiviral short hairpin RNA (shRNA) plasmids TRCN0000055218, TRCN0000012628 and TRCN0000071453 respectively. The non-target shRNA vector was used as control. The pharmacological treatments were conducted with the following agents: Afatinib (20 mg/kg, daily), SD-36 (50 mg/kg, daily).
It was also included in the combined treatment Afatinib (a tyrosine receptor kinase inhibitor against EGFR) and SD-36 (PROTAC degrader against STAT3).

The target of data set [3] is T1, STAT3 (Mus musculus, UniProt P42227).
T1 construct: Western blot analysis of the expression of STAT3 of cell-lysate extracts; endogenous in cells; host or cells: Egfr lox/lox; Raf1 lox/lox PDAC (NR) tumor cells infected with Adeno-GFP or Adeno-CRE
In words: Western blot analysis of STAT3 expression in cell-lysate extracts. It counts as cell-based. As to conditions: NR PDAC cells treated with SD-36; GAPDH loading control. Here is the method:
(§2) FIG. 2. A. Colony formation assay of Egfr^lox/lox; Raf1^lox/lox PDAC cells infected with Adeno-GFP and Adeno-CRE viral particles in combination with treatment with 1 μM SD-36. 5000 cells were seeded for 10 days and culture medium was changed every day. B. Western blot analysis of the expression of STAT3 of cell-lysate extracts. GAPDH was used as loading control.
The expression of STAT3 was targeted by shRNAs after genetic deletion of Egfr and Raf1 in NR cells by Adeno-GFP and Adeno-GFP-CRE infection. […] NR tumor cells, previously infected with Adeno-GFP and Adeno-GFP-CRE virus to eliminate the EGFR and the Raf1 (floxed targets), were treated with SD-36 for 10 days in a colony formation assay. Elimination of the targets was very efficient.
(Immunoblotting shows a protein as a band on a membrane.)

The test system of data set [4] is Egfr^lox/lox; Raf1^lox/lox PDAC cells. Briefly: Colony formation assay of NR PDAC cells infected with Adeno-GFP or Adeno-CRE. Format: cell-based. As to conditions: 1 μM SD-36, 10 days. Here is the method: FIG. 1. Colony formation assay of Egfr^lox/lox; Raf1^lox/lox PDAC cells infected with Adeno-GFP and Adeno-CRE viral particles in combination with small-hairpin RNA (shRNA) against STAT3 and Scr (empty vector) as control. 5000 cells were seeded for 10 days. B. Western blot analysis of the expression of EGFR, RAF1 and STAT3 of cell-lysate extracts. GAPDH was used as loading control.
as §2, §1
The expression of STAT3 was targeted by shRNAs after genetic deletion of Egfr and Raf1 in NR cells by Adeno-GFP and Adeno-GFP-CRE infection. […]

The subject of data set [5] is pancreatic ductal adenocarcinoma (PDAC). Conditions: adjuvant treatment, patients with resectable disease; cited from earlier work.

T1 sequence (P42227 whole entry): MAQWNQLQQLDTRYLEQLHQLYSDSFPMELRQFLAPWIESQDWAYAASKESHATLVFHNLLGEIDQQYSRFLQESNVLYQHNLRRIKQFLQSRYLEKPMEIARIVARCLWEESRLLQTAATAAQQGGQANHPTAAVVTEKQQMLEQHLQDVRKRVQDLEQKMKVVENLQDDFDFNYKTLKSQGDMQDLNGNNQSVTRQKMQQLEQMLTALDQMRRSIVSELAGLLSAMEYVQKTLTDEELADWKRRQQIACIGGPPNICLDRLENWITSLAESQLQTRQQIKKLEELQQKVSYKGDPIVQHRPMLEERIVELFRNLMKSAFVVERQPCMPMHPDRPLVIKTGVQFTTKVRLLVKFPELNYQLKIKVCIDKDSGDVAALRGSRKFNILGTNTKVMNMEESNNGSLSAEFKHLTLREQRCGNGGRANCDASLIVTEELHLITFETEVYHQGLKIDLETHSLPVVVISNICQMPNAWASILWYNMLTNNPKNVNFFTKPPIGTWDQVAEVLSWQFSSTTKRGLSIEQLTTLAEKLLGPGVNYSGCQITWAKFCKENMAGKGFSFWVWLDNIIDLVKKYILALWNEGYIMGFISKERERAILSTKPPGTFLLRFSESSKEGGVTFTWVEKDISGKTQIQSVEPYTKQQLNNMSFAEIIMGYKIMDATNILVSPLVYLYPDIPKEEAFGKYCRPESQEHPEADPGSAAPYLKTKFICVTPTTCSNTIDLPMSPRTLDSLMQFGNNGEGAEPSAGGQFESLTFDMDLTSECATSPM

Turning to `Cn1cnc2c(F)c(Nc3ccc(Br)cc3Cl)c(C(=O)NOCCO)cc21` [AZD6244], in the data set on STAT3 [1], the STAT3 activation result was “significantly activated”.
As for `COc1cccc(-c2cc(=O)c3ccccc3o2)c1N` [PD98059], the STAT3 activation entry with STAT3 [1] is recorded as “significantly activated”.
`NC(=O)CC[C@H](NC(=O)[C@@H]1CC[C@@H]2CCN(C(=O)CCCCCC#Cc3cccc4c3CN(C3CCC(=O)NC3=O)C4=O)C[C@H](NC(=O)c3cc4cc(C(F)(F)P(=O)(O)O)ccc4[nH]3)C(=O)N21)C(=O)NC(c1ccccc1)c1ccccc1` (stereo partly shown) [SD-36]: in data set [2], the tumor growth entry is “significant delay and slight reduction of tumor growth”. The STAT3 degradation result on STAT3 [3] is recorded as “effectively degraded STAT3”. Also, the “growth of NR cells that express Egfr and Raf1 (toxicity)” value in data set [4] (Adeno-GFP infected NR cells, versus vehicle control) is given as “grew similarly as the vehicle control”. For the same compound, in data set [4] (NR cells after deletion of Egfr and Raf1 (Adeno-CRE)), the “colony formation / cell death of NR tumor cells” value is reported as “cell death of NR tumor cells”.
As to FOLFIRINOX, the “median overall survival (OS)” value in data set [5] is recorded as 54 months.
